# Literature values in paper PMC5941251 (Molecular Pharmaceutics, 2018).
compound,measurement,value
"CC1(C)C(/C=C/C=C/C=C/C=C2\N(CCCCS(=O)(=O)O)c3ccc4ccccc4c3C2(C)C)=[N+](CCCCS(=O)(=O)[O-])c2ccc3ccccc3c21 [ICG, indocyanine green]",risk of anaphylactic shock,0.05–0.2%
